Reference: US20180339010A1, “USE OF SHORT SYNTHETIC PEPTIDE FOR THE TREATMENT AND/OR PROPHYLAXIS OF DRY EYE DISEASE” (priority 2015, published 2018)

Assays:
Format in all cases: in vivo, C57BL/6 mice
[1] = test system: desiccating stressed-mice; experiment: PAS staining of goblet cells in conjunctival epithelium, therapeutic treatment; conditions: 14 days in CEC, then eye drops for 7 days; for number of goblet cells in PAS-stained sections, observation in words, FIG. 5A: peptides 100 μM
Description: (§1) C57BL/6 mice (7-8 weeks old, each weighted about 18 to 25 g) were used in the present study. All mice were maintained in the animal facility in accordance with the procedures approved by Mackay Memorial Hospital Review Board (Taiwan, R.O. C.). All animal experimental procedures were conducted according to the ARVO Statement for the Use of Animals in Ophthalmic and Vision Research.
(§2) Dry eyes were induced by placing mice in a controlled environment chamber (CEC) in accordance with procedures previously described by Barabino et al (IVOS (2005) 46(8), 2766-2771). Mice placed in the CEC were exposed to a relative humidity (RH)<25%, temperature of 20 to 22° C., and airflow of 15 L/min, 12 hours per day. Control mice were kept in a normal environment (RH >50%, no air flow, temperature of 21-23° C.) for the same duration.
After animals were euthanized, eyes were surgically excised, fixed in 10% formalin, paraffin embedded, and cut into 5-μm sections. […] Statistics
Dry eye was created by housing the test animals in CEC for 14 days in accordance with procedures described in the “material and method” section. After confirmation of signs of DED by fluorescein stain (FIG. 3A; upper panel; day 14), animals were then removed from the CEC and placed in the normal environment (day 15), then started treatment by administering eye drop containing 1% CMC, 1% dexamethasone (Dex), 7-mer (100 μM), or 7-mer (ΔS) (100 μM) for 7 days (FIG. 3A; lower panel; day 21; and FIG. 3B).

[2] = test system: desiccating stressed-mice; experiment: Tear production (phenol red thread), prophylactic treatment in desiccating stress-induced dry eye model; conditions: peptide 100 μM topically three times daily for 14 days in CEC; vehicle control 3.7±0.25
Description: as §1, §2
Tear production was measured by phenol red-impregnated cotton threads (Zone-Quick; Oasis, Glendora, Calif.). The validity of this test in mice was performed in accordance with procedures previously described by Dursun et al. (IVOS (2002) 43, 632-638). The threads were held with jeweler forceps and placed in the lateral canthus for 60 seconds. The tear production expressed in millimeters of thread wet by the tear and turned red.
(§3) Dry eye was created in mice using a controlled environmental chamber (CEC) in accordance with procedures described in the “material and method” section. Treatment was started on the first day when the mice were housed in CEC, in which the present synthetic peptide (i.e., 7-mer, 100 μM), peptide vehicle (1% CMC), or peptides derived from 7-mer (i.e., 7-mer-ΔD, 7-mer-ΔS, 7-mer (V→L) and 7-mer (VR→QK), 100 μM) were topically administered to eyes three times daily for 14 days. The peptides 7-mer-ΔD (LYRVRS, SEQ ID NO: 6) and 7-mer-ΔS (DLYRVR, SEQ ID NO: 7) represented peptides with one amino acid residue respectively deleted from 5-end (D; Aspartic acid) and 3′-end (S; Serine) of 7-mer, and were used as negative control peptides. In addition, the effects of single and double amino-acid substitution at 7-mer that generate 7-mer (V→L) and 7-mer (VR→QK) were also used to treat dry eye.
The protective effects of 7-mer and its derivatives on DED were also evaluated by measuring tears produced by the test animals, and results are depicted in FIG. 2.

[3] = test system: desiccating stressed-mice; experiment: Corneal fluorescein staining, prophylactic treatment in desiccating stress-induced dry eye (CEC) model; conditions: for biological function towards DED (summary statement): deletion peptides of SEQ ID NO: 2; for corneal fluorescein staining (score), FIG. 1B: peptide 100 μM topically to eyes three times daily for 14 days, started first day in CEC, 1% CMC vehicle 3.8±0.31
Description: as §1, §2
Animals were anesthetized by an intraperitoneal injection of a mixture of zoletil (6 mg/kg) and xylazine (3 mg/kg). Corneal epithelial injury was determined by staining with topical fluorescein (Fluor-I-Strip, Ayerst Laboratories, Philadelphia, Pa.). Corneal fluorescein staining was examined with a slit-lamp biomicroscope under cobalt blue light and photographed with a digital camera. Data is presented as mean±SD. The number of fluorescein staining dots were graded in the 1-mm central cornea zone of each eye, on a standardized five-point scale (0 dot, grade 0; 1-5 dots, grade 1; 6-15 dots, grade 2; 16-30 dots, grade 3; 30 dots, grade 4). One point was added to the score if there was one area of confluent staining, and two points were added for two or more areas of confluence. (Li J et al., Mole Visions 2012, 18, 317)
as §3
Fluorescein staining was used to assess changes in corneal epithelial integrity, and results are illustrated in FIGS. 1A and 1B. FIG. 1A are photographs taken on dry eyes respectively treated with the 1% CMC vehicle, 7-mer and its derivates; and FIG. 1B gives the quantitative analysis of FIG. 1A.

[4] = test system: desiccating stressed-mice; experiment: Corneal fluorescein staining, therapeutic treatment of desiccation stress-induced dry eye; conditions: 14 days in CEC, then eye drops for 7 days in normal environment (day 21); peptides 100 μM; 1% CMC control 3.6±0.26
Description: as §1, §2
Animals were anesthetized by an intraperitoneal injection of a mixture of zoletil (6 mg/kg) and xylazine (3 mg/kg). Corneal epithelial injury was determined by staining with topical fluorescein (Fluor-I-Strip, Ayerst Laboratories, Philadelphia, Pa.). Corneal fluorescein staining was examined with a slit-lamp biomicroscope under cobalt blue light and photographed with a digital camera. Data is presented as mean±SD. […]

[5] = test system: desiccating stressed-mice; experiment: Corneal epithelial histopathology (H&E), detached superficial apical cells, therapeutic treatment; conditions: 14 days in CEC, then eye drops for 7 days, peptides 100 μM; for detached superficial apical cells on H&E stained cornea sections, observation in words, FIG. 4A: 0.1% Dex; for detached superficial apical cells (number), FIG. 4B: 1% CMC control 14±1.06
Description: as §1, §2
The corneal epithelial damage was assessed as described previously (Pflugfelder et al., 2005, Am J Pathol 166, 61-71). In brief, the number of detaching apical cells was counted from a full microscope field-of vision from three separate tissue sections, by two independent masked observers, using a 20 objective. Three mice were evaluated in each treatment
Dry eye was created by housing the test animals in CEC for 14 days in accordance with procedures described in the “material and method” section. After confirmation of signs of DED by fluorescein stain (FIG. […] 3A; lower panel; day 21; and FIG. 3B).

Row | Substance | number of goblet cells in PAS-stained sections, observation in words, FIG. 5A [1] | tear production (thread wet by the tear), FIG. 2 [2] | biological function towards DED (summary statement) [3] | corneal fluorescein staining (score), FIG. 1B [3] | corneal fluorescein staining score, FIG. 3B [4] | detached superficial apical cells on H&E stained cornea sections, observation in words, FIG. 4A [5] | detached superficial apical cells (number), FIG. 4B [5] | goblet cells (number), FIG. 5B ([1]; 7-mer 100 μM, 1% CMC control 7.5±0.96)
1 | DLYRVR [7-mer (ΔS), negative control peptide, 7-mer with C-terminal serine deleted] | significant reduction in the number of goblet cells | neither 7-mer (ΔD) nor 7-mer (ΔS) peptides possessed such effect | do not possess any biological function towards DED | no such effect | no therapeutic effect | Detached superficial apical cells were identified | 13.8±1.03 | –
2 | LYRVRS [7-mer (ΔD), negative control peptide, 7-mer with N-terminal aspartate deleted] | – | neither 7-mer (ΔD) nor 7-mer (ΔS) peptides possessed such effect | do not possess any biological function towards DED | no such effect | – | – | – | –
3 | DLYRVRS [7-mer, NH2-Asp-Leu-Tyr-Arg-Val-Arg-Ser-COOH] | relatively the same as that of the normal healthy mice | 5.1±0.21 millimeters | – | 1.3±0.21 | 1.5±0.18 | no detached cells were found | 2.1±0.37 | 12.7±1.28
4 | DLYRQKS [7-mer (VR→QK), NH2-Asp-Leu-Tyr-Arg-Gln-Lys-Ser-COOH] | – | 4.9±0.15 millimeters | – | – | – | – | – | –
5 | DLYRLRS [7-mer (V→L), NH2-Asp-Leu-Tyr-Arg-Leu-Arg-Ser-COOH] | – | 5.0±0.16 millimeters | – | – | – | – | – | –
